{"source": "PubChem BioAssay (NCI)", "test_in_all_cases": "DTP human tumour cell line panel, 48 h", "key": {"OVCAR-4 ovarian": {"system": "OVCAR-4 ovarian"}, "HS 578T breast": {"system": "HS 578T breast"}, "RPMI-8226 leukemia": {"system": "RPMI-8226 leukemia"}, "HT29 colon": {"system": "HT29 colon"}, "SF-295 CNS": {"system": "SF-295 CNS"}, "SF-539 CNS": {"system": "SF-539 CNS"}, "SK-MEL-28 melanoma": {"system": "SK-MEL-28 melanoma"}, "SK-OV-3 ovarian": {"system": "SK-OV-3 ovarian"}, "MDA-MB-435": {"system": "MDA-MB-435"}, "NCI-H23 lung": {"system": "NCI-H23 lung"}, "UACC-62 melanoma": {"system": "UACC-62 melanoma"}, "DU-145 prostate": {"system": "DU-145 prostate"}, "ACHN renal": {"system": "ACHN renal"}, "CAKI-1 renal": {"system": "CAKI-1 renal"}, "HCT-116 colon": {"system": "HCT-116 colon"}, "U251 CNS": {"system": "U251 CNS"}, "HCT-15 colon": {"system": "HCT-15 colon"}, "HOP-92 NSCLC": {"system": "HOP-92 NSCLC"}, "UACC-257 melanoma": {"system": "UACC-257 melanoma"}, "COLO 205 colon": {"system": "COLO 205 colon"}, "HCC-2998 colon": {"system": "HCC-2998 colon"}, "KM12 colon": {"system": "KM12 colon"}, "EKVX NSCLC": {"system": "EKVX NSCLC"}, "NCI-H460 lung": {"system": "NCI-H460 lung"}, "MALME-3M melanoma": {"system": "MALME-3M melanoma"}, "SR leukemia": {"system": "SR leukemia"}, "T-47D breast": {"system": "T-47D breast"}, "K-562 leukemia": {"system": "K-562 leukemia"}, "MCF7 breast": {"system": "MCF7 breast"}, "LOX IMVI melanoma": {"system": "LOX IMVI melanoma"}}, "note": "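Values below derive from 48-hour exposures of cells grown in 96-well plates, with endpoints linearly interpolated between the two concentrations bracketing the appropriate inhibition level. GI50: concentration for 50% inhibition of growth. TGI marks complete inhibition of growth.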"}
{"smiles": "C[C@@H](Nc1c(C#N)cnc2ccc(-c3cnc4[nH]ncc4c3)cc12)c1ccccc1", "values": [{"measurement": "TGI", "setting": "OVCAR-4 ovarian", "value": 18, "unit": "µM"}, {"measurement": "GI50", "setting": "HS 578T breast", "value": 1.27, "unit": "µM"}, {"measurement": "TGI", "setting": "HS 578T breast", "value": 5.37, "unit": "µM"}, {"measurement": "GI50", "setting": "RPMI-8226 leukemia", "value": 2.04, "unit": "µM"}, {"measurement": "TGI", "setting": "RPMI-8226 leukemia", "value": 11.3, "unit": "µM"}, {"measurement": "GI50", "setting": "HT29 colon", "value": 14.5, "unit": "µM"}, {"measurement": "TGI", "setting": "HT29 colon", "value": 35.2, "unit": "µM"}, {"measurement": "GI50", "setting": "SF-295 CNS", "value": 2.11, "unit": "µM"}, {"measurement": "TGI", "setting": "SF-295 CNS", "value": 10.5, "unit": "µM"}, {"measurement": "GI50", "setting": "SF-539 CNS", "value": 2.59, "unit": "µM"}, {"measurement": "TGI", "setting": "SF-539 CNS", "value": 12.2, "unit": "µM"}, {"measurement": "GI50", "setting": "SK-MEL-28 melanoma", "value": 2.06, "unit": "µM"}, {"measurement": "TGI", "setting": "SK-MEL-28 melanoma", "value": 14.4, "unit": "µM"}, {"measurement": "GI50", "setting": "SK-OV-3 ovarian", "value": 2.16, "unit": "µM"}, {"measurement": "TGI", "setting": "SK-OV-3 ovarian", "value": 7.98, "unit": "µM"}, {"measurement": "GI50", "setting": "MDA-MB-435", "value": 3.5, "unit": "µM"}, {"measurement": "TGI", "setting": "MDA-MB-435", "value": 19.5, "unit": "µM"}, {"measurement": "GI50", "setting": "NCI-H23 lung", "value": 4.31, "unit": "µM"}, {"measurement": "TGI", "setting": "NCI-H23 lung", "value": 22, "unit": "µM"}, {"measurement": "GI50", "setting": "UACC-62 melanoma", "value": 1.94, "unit": "µM"}, {"measurement": "TGI", "setting": "UACC-62 melanoma", "value": 5.86, "unit": "µM"}, {"measurement": "GI50", "setting": "DU-145 prostate", "value": 2.76, "unit": "µM"}, {"measurement": "TGI", "setting": "DU-145 prostate", "value": 25.2, "unit": "µM"}, {"measurement": "GI50", "setting": "ACHN renal", "value": 0.699, "unit": "µM"}, {"measurement": "TGI", "setting": "ACHN renal", "value": 11.3, "unit": "µM"}, {"measurement": "GI50", "setting": "CAKI-1 renal", "value": 2.78, "unit": "µM"}, {"measurement": "TGI", "setting": "CAKI-1 renal", "value": 10.9, "unit": "µM"}, {"measurement": "GI50", "setting": "HCT-116 colon", "value": 3.77, "unit": "µM"}, {"measurement": "TGI", "setting": "HCT-116 colon", "value": 16.1, "unit": "µM"}, {"measurement": "GI50", "setting": "U251 CNS", "value": 4.91, "unit": "µM"}, {"measurement": "TGI", "setting": "U251 CNS", "value": 22.7, "unit": "µM"}, {"measurement": "GI50", "setting": "HCT-15 colon", "value": 3.17, "unit": "µM"}, {"measurement": "TGI", "setting": "HCT-15 colon", "value": 16.4, "unit": "µM"}, {"measurement": "GI50", "setting": "HOP-92 NSCLC", "value": 1.08, "unit": "µM"}, {"measurement": "TGI", "setting": "HOP-92 NSCLC", "value": 7.29, "unit": "µM"}, {"measurement": "GI50", "setting": "UACC-257 melanoma", "value": 3.24, "unit": "µM"}, {"measurement": "TGI", "setting": "UACC-257 melanoma", "value": 16.3, "unit": "µM"}, {"measurement": "GI50", "setting": "COLO 205 colon", "value": 16.3, "unit": "µM"}, {"measurement": "TGI", "setting": "COLO 205 colon", "value": 37, "unit": "µM"}, {"measurement": "GI50", "setting": "HCC-2998 colon", "value": 4.69, "unit": "µM"}, {"measurement": "TGI", "setting": "HCC-2998 colon", "value": 26, "unit": "µM"}, {"measurement": "GI50", "setting": "KM12 colon", "value": 4.2, "unit": "µM"}, {"measurement": "TGI", "setting": "KM12 colon", "value": 21.5, "unit": "µM"}, {"measurement": "GI50", "setting": "EKVX NSCLC", "value": 0.827, "unit": "µM"}, {"measurement": "TGI", "setting": "EKVX NSCLC", "value": 4.45, "unit": "µM"}, {"measurement": "GI50", "setting": "NCI-H460 lung", "value": 2.66, "unit": "µM"}, {"measurement": "TGI", "setting": "NCI-H460 lung", "value": 13.2, "unit": "µM"}, {"measurement": "GI50", "setting": "MALME-3M melanoma", "value": 1.16, "unit": "µM"}, {"measurement": "TGI", "setting": "MALME-3M melanoma", "value": 7.27, "unit": "µM"}, {"measurement": "GI50", "setting": "SR leukemia", "value": 2.23, "unit": "µM"}, {"measurement": "TGI", "setting": "SR leukemia", "value": 19.7, "unit": "µM"}, {"measurement": "GI50", "setting": "T-47D breast", "value": 2.88, "unit": "µM"}, {"measurement": "TGI", "setting": "T-47D breast", "value": 8.36, "unit": "µM"}, {"measurement": "GI50", "setting": "K-562 leukemia", "value": 4.67, "unit": "µM"}, {"measurement": "TGI", "setting": "K-562 leukemia", "value": "> 100", "unit": "µM"}, {"measurement": "GI50", "setting": "MCF7 breast", "value": 1.87, "unit": "µM"}, {"measurement": "TGI", "setting": "MCF7 breast", "value": 7.81, "unit": "µM"}, {"measurement": "GI50", "setting": "LOX IMVI melanoma", "value": 3.12, "unit": "µM"}, {"measurement": "TGI", "setting": "LOX IMVI melanoma", "value": 16.7, "unit": "µM"}]}
